Source: PubChem BioAssay AID330 (DTP/NCI, 2004)
“And” between values parts separate entries of the source, which are not always exact repeats. Equal values may be shown once. Inconclusive results and toxic doses are left out.

Tested on: P388 leukemia ip, CD2F1 mice, survival T/C
Assay: NCI In Vivo Anticancer Drug Screen. Data for tumor model P388 Leukemia (intraperitoneal) in CD2F1 (CDF1) mice
Details: endpoint: median survival time, higher = longer survival
Summary of the method: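 Mice carrying the transplanted tumor received test compound or vehicle. Survival was recorded in each group, and the value is the treated-group measurement divided by that of the vehicle-treated control group.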

[1] = dose: 50.0 mg/kg/injection, schedule: Q01DX009 (ip), vehicle: saline
[2] = dose: 100.0 mg/kg/injection, schedule: Q01DX009 (ip), vehicle: saline
[3] = dose: 50.0 mg/kg/injection, schedule: Q01DX005 (ip), vehicle: saline with Tween-80
[4] = dose: 100.0 mg/kg/injection, schedule: Q01DX005 (ip), vehicle: saline with Tween-80
[5] = dose: 50.0 mg/kg/injection, schedule: Q01DX005 (ip), vehicle: Klucel (hydroxypropylcellulose) (HPC)
[6] = dose: 100.0 mg/kg/injection, schedule: Q01DX005 (ip), vehicle: Klucel (hydroxypropylcellulose) (HPC)
[7] = dose: 200.0 mg/kg/injection, schedule: Q01DX005 (ip), vehicle: Klucel (hydroxypropylcellulose) (HPC)
[8] = dose: 200.0 mg/kg/injection, schedule: Q01DX005 (ip), vehicle: saline with Tween-80
[9] = dose: 50.0 mg/kg/injection, schedule: Q01DX009 (ip), vehicle: saline with Tween-80
[10] = dose: 100.0 mg/kg/injection, schedule: Q01DX009 (ip), vehicle: saline with Tween-80
[11] = dose: 60.0 mg/kg/injection, schedule: Q01DX005 (ip), vehicle: saline with Tween-80
[12] = dose: 120.0 mg/kg/injection, schedule: Q01DX005 (ip), vehicle: saline with Tween-80
[13] = dose: 240.0 mg/kg/injection, schedule: Q01DX005 (ip), vehicle: saline with Tween-80
[14] = dose: 200.0 mg/kg/injection, schedule: Q01DX009 (ip), vehicle: saline with Tween-80
[15] = dose: 50.0 mg/kg/injection, schedule: Q01DX009 (ip), vehicle: Klucel (hydroxypropylcellulose) (HPC)
[16] = dose: 100.0 mg/kg/injection, schedule: Q01DX009 (ip), vehicle: Klucel (hydroxypropylcellulose) (HPC)
[17] = dose: 400.0 mg/kg/injection, schedule: Q01DX009 (ip), vehicle: saline with Tween-80
[18] = dose: 25.0 mg/kg/injection, schedule: Q01DX005 (ip), vehicle: Klucel (hydroxypropylcellulose) (HPC)
[19] = dose: 200.0 mg/kg/injection, schedule: Q04DX003 (ip), vehicle: saline with Tween-80
[20] = dose: 400.0 mg/kg/injection, schedule: Q04DX003 (ip), vehicle: saline with Tween-80

SMILES: [CH3][Ge]([O][Ge]([CH3])([c]1ccccc1)[c]1ccccc1)([c]1ccccc1)[c]1ccccc1
- T/C [1]: 102 % of control
- T/C [2]: 93 % of control
- T/C (dose: 200.0 mg/kg/injection, schedule: Q01DX009 (ip), vehicle: saline): 92 % of control

SMILES: COc1ccc(Cc2cc(N=O)c(OC)cc2O)cc1
- T/C [3]: 90 % of control
- T/C [4]: 87 % of control

SMILES: COc1cc2c(NCCCCCCO[N+](=O)[O-])ncnc2c(OC)c1OC
- T/C [5]: 100 % of control
- T/C [6]: 103 % of control
- T/C [7]: 100 % of control

SMILES: Cc1cc(OC(=O)N2CCCCC2)c(C(C)C)cc1[N+](C)(C)C
- T/C (dose: 0.02 mg/kg/injection, schedule: Q01DX009 (ip), vehicle: saline): 100 % of control
- T/C (dose: 0.03 mg/kg/injection, schedule: Q01DX009 (ip), vehicle: saline): 100 % of control
- T/C (dose: 0.06 mg/kg/injection, schedule: Q01DX009 (ip), vehicle: saline): 90 % of control

SMILES: Cc1c(N=Nc2ccccc2Cl)c(-c2ccccc2)nn1C(=S)S
- T/C [3]: 111 % of control
- T/C [4]: 108 % of control
- T/C [8]: 111 % of control

SMILES: CC1=CC(OC2C=C(C)C(=O)O2)OC1=O (stereo not drawn)
- T/C (dose: 100.0 mg/kg/injection, schedule: Q04DX002 (ip), vehicle: saline): 100 % of control
- T/C (dose: 200.0 mg/kg/injection, schedule: Q04DX002 (ip), vehicle: saline): 100 % of control
- T/C (dose: 400.0 mg/kg/injection, schedule: Q04DX002 (ip), vehicle: saline): 104 % of control

SMILES: Cc1c(-c2ccccc2)ccnc1/C=N/NC(=S)NCCc1ccccn1
- T/C (dose: 6.25 mg/kg/injection, schedule: Q01DX009 (ip), vehicle: saline with Tween-80): 113 % of control
- T/C (dose: 12.5 mg/kg/injection, schedule: Q01DX009 (ip), vehicle: saline with Tween-80): 107 % of control and 111 % of control
- T/C (dose: 25.0 mg/kg/injection, schedule: Q01DX009 (ip), vehicle: saline with Tween-80): 115 % of control and 117 % of control
- T/C [9]: 120 % of control and 122 % of control
- T/C [10]: 86 % of control

SMILES: Cc1ccc(C(O)c2cnc(C)n2Cc2ccccc2)cc1 (stereo not drawn)
- T/C [11]: 100 % of control
- T/C [12]: 98 % of control
- T/C [13]: 92 % of control

SMILES: CCn1cc(C(=O)O)c(=O)c2nc(N3CCOCC3)sc21
- T/C [11]: 106 % of control
- T/C [12]: 95 % of control
- T/C [13]: 98 % of control

SMILES: CC1CN1P(=O)(N1CC1C)N1CC1C (stereo not drawn)
- T/C (dose: 3.13 mg/kg/injection, schedule: Q04DX003 (ip), vehicle: saline): 104 % of control
- T/C (dose: 6.25 mg/kg/injection, schedule: Q04DX003 (ip), vehicle: saline): 109 % of control
- T/C (dose: 12.5 mg/kg/injection, schedule: Q04DX003 (ip), vehicle: saline): 109 % of control
- T/C (dose: 50.0 mg/kg/injection, schedule: Q04DX003 (ip), vehicle: saline): 222 % of control
- T/C (dose: 100.0 mg/kg/injection, schedule: Q04DX003 (ip), vehicle: saline): 86 % of control

SMILES: Cc1ccc(C(O)(c2nc3ccccc3s2)c2nc3ccccc3s2)cc1
- T/C [9]: 101 % of control
- T/C [10]: 112 % of control
- T/C [14]: 113 % of control

SMILES: FC(F)(F)c1ccccc1NC(=S)N1CCN(c2ccccc2)CC1
- T/C (dose: 50.0 mg/kg/injection, schedule: Q01DX009 (ip), vehicle: gum acacia): 109 % of control
- T/C (dose: 100.0 mg/kg/injection, schedule: Q01DX009 (ip), vehicle: gum acacia): 100 % of control
- T/C (dose: 200.0 mg/kg/injection, schedule: Q01DX009 (ip), vehicle: gum acacia): 92 % of control

SMILES: O=C1NN2CCN=C2c2cccnc21
- T/C (dose: 3.75 mg/kg/injection, schedule: Q01DX005 (ip), vehicle: saline with Tween-80): 100 % of control
- T/C (dose: 7.5 mg/kg/injection, schedule: Q01DX005 (ip), vehicle: saline with Tween-80): 95 % of control
- T/C (dose: 15.0 mg/kg/injection, schedule: Q01DX005 (ip), vehicle: saline with Tween-80): 100 % of control and 93 % of control
- T/C [11]: 101 % of control

SMILES: O=C(COc1ccc(Cl)cc1Cl)N1CCNC1=S
- T/C [15]: 100 % of control
- T/C [16]: 103 % of control
- T/C (dose: 200.0 mg/kg/injection, schedule: Q01DX009 (ip), vehicle: Klucel (hydroxypropylcellulose) (HPC)): 100 % of control

SMILES: Oc1c(C(c2ccccc2)N2CCOCC2)ccc2ccccc12 (stereo not drawn)
- T/C [9]: 109 % of control
- T/C [10]: 109 % of control
- T/C [14]: 104 % of control

SMILES: CN(C)c1ccc(CN2CCCN(Cc3ccc(N(C)C)cc3)C2c2cc(Cl)ccc2O)cc1
- T/C [10]: 95 % of control
- T/C [14]: 90 % of control
- T/C [17]: 90 % of control

SMILES: CNC1CC(C)(O)Cc2cc3c(c(O)c21)C(=O)c1c(O)cc2c(c1C3=O)OC1OC2(C)C(O)C(N(C)C)C1O (stereo not drawn)
- T/C (dose: 12.5 mg/kg/injection, schedule: Q01DX009 (ip), vehicle: other): 153 % of control
- T/C (dose: 25.0 mg/kg/injection, schedule: Q01DX009 (ip), vehicle: other): 158 % of control

SMILES: CC(=O)Oc1cc2c(cc1C(Nc1ccccn1)c1ccc3c(c1)OCO3)OCO2 (stereo not drawn)
- T/C [11]: 98 % of control
- T/C [12]: 92 % of control
- T/C [13]: 97 % of control

SMILES: CC1(C)Cc2[nH]c3ccccc3c(=O)c2-c2nc3ccccc3c(=O)n21
- T/C (dose: 12.5 mg/kg/injection, schedule: Q01DX005 (ip), vehicle: Klucel (hydroxypropylcellulose) (HPC)): 98 % of control
- T/C [18]: 88 % of control
- T/C [5]: 90 % of control
- T/C [6]: 98 % of control
- T/C [7]: 116 % of control

SMILES: O=c1n(-c2ccccc2)c(=O)n2n1C1C3C4C5C1C5C2C43 (stereo not drawn)
- T/C (dose: 6.25 mg/kg/injection, schedule: Q01DX009 (ip), vehicle: Klucel (hydroxypropylcellulose) (HPC)): 100 % of control
- T/C (dose: 12.5 mg/kg/injection, schedule: Q01DX009 (ip), vehicle: Klucel (hydroxypropylcellulose) (HPC)): 87 % of control

SMILES: Cc1cc(=O)[nH]c(N/N=C/c2ccccc2O)n1
- T/C [10]: 90 % of control
- T/C (dose: 100.0 mg/kg/injection, schedule: Q04DX003 (ip), vehicle: saline with Tween-80): 90 % of control
- T/C [14]: 90 % of control
- T/C [19]: 90 % of control
- T/C [17]: 90 % of control
- T/C [20]: 100 % of control

SMILES: CC(C)(C)C(=Nc1ccccc1)OC(c1ccccc1)(C(F)(F)F)C(F)(F)F
- T/C (dose: 100.0 mg/kg/injection, schedule: Q04DX002 (ip), vehicle: Klucel (hydroxypropylcellulose) (HPC)): 105 % of control
- T/C (dose: 200.0 mg/kg/injection, schedule: Q04DX002 (ip), vehicle: Klucel (hydroxypropylcellulose) (HPC)): 101 % of control
- T/C (dose: 400.0 mg/kg/injection, schedule: Q04DX002 (ip), vehicle: Klucel (hydroxypropylcellulose) (HPC)): 90 % of control

SMILES: COc1ccc2c(c1)CC(=CO)CC2=O.COc1ccc2c(c1)CC/C(=C/O)C2=O.[Cu]
- T/C (dose: 37.5 mg/kg/injection, schedule: Q01DX009 (ip), vehicle: saline with Tween-80): 100 % of control
- T/C (dose: 75.0 mg/kg/injection, schedule: Q01DX009 (ip), vehicle: saline with Tween-80): 90 % of control
- T/C [10]: 95 % of control
- T/C (dose: 150.0 mg/kg/injection, schedule: Q01DX009 (ip), vehicle: saline with Tween-80): 109 % of control
- T/C [14]: 123 % of control
- T/C [19]: 91 % of control
- T/C [20]: 91 % of control

SMILES: Cc1ccc(NC(=O)N(C)C)c(C)c1
- T/C (dose: 60.0 mg/kg/injection, schedule: Q01DX005 (ip), vehicle: Klucel (hydroxypropylcellulose) (HPC)): 97 % of control
- T/C (dose: 120.0 mg/kg/injection, schedule: Q01DX005 (ip), vehicle: Klucel (hydroxypropylcellulose) (HPC)): 97 % of control
- T/C (dose: 240.0 mg/kg/injection, schedule: Q01DX005 (ip), vehicle: Klucel (hydroxypropylcellulose) (HPC)): 94 % of control

SMILES: CCSCCCC(=O)O
- T/C (dose: 25.0 mg/kg/injection, schedule: Q01DX009 (ip), vehicle: saline): 100 % of control
- T/C [1]: 100 % of control
- T/C [2]: 100 % of control

SMILES: CC(C)N1NC1(C)C (stereo not drawn)
- T/C [3]: 107 % of control
- T/C [4]: 107 % of control
- T/C [8]: 100 % of control

SMILES: COc1cc(C)cc(OC)c1
- T/C [18]: 101 % of control
- T/C [5]: 100 % of control
- T/C [6]: 100 % of control
- T/C [7]: 110 % of control

SMILES: CCOC(=O)CCSC(=O)NCCCCCCNC(=O)SCCC(=O)OCC
- T/C [5]: 98 % of control
- T/C [6]: 96 % of control
- T/C [7]: 102 % of control

SMILES: O=C(O)CCC(=O)N(CCP(c1ccccc1)c1ccccc1)CCP(c1ccccc1)c1ccccc1
- T/C [15]: 111 % of control
- T/C [16]: 112 % of control
